Our source for the Ki and EC50 values is patent US8501794B2, “Compounds as cannabinoid receptor ligands” (priority 2007, dated 2013).

In experiment [1] the target is T1, human CB2 receptors (Homo sapiens, UniProt P34972).
T1 construct: expressed in transfected cells; host or cells: HEK293
As to the kind of experiment: human CB2 radioligand binding assay ([3H]CP-55,940 competition).

For experiment [2], the target named is T2, rat CB2 (Rattus norvegicus, UniProt Q9QZN9).
T2 sequence (Q9QZN9 1-360): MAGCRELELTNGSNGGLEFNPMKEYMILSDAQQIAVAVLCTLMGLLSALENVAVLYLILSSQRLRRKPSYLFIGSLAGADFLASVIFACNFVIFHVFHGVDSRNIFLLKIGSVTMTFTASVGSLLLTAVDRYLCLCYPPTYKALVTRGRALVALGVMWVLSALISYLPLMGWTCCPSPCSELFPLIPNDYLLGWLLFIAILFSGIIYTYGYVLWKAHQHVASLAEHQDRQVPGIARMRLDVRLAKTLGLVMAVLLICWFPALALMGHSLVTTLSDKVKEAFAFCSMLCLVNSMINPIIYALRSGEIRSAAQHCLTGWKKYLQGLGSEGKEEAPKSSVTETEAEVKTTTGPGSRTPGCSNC
As to the kind of experiment: rat CB2 cyclase functional assay (HitHunter cAMP, HEK cells). Type of experiment: cell-based. Also on record: expressed in transfected cells; host or cells: HEK. The following applies: forskolin 18 μM.

Experiment [3] addresses T2, rat CB2. As to the kind of experiment: rat CB2 radioligand binding assay ([3H]CP-55,940 competition). Also on record: expressed in transfected cells; host or cells: HEK293.

T1 sequence (P34972 whole entry): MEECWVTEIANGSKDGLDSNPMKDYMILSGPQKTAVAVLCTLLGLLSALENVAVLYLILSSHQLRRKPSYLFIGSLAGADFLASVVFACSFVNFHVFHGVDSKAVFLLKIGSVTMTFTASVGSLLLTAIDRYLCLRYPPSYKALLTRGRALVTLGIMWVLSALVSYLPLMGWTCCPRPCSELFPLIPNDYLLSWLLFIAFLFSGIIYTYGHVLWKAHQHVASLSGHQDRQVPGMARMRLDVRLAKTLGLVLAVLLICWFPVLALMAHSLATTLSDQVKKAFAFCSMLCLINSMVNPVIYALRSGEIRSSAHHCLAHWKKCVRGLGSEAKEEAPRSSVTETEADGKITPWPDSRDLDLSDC

Regarding `COc1ccc(Cl)cc1C(=O)/N=c1\sn(C(C)(C)C)cc1CC(C)C` [Example 37, N-[(5Z)-2-tert-butyl-4-isobutylisothiazol-5(2H)-ylidene]-5-chloro-2-methoxybenzamide], the Ki (in general, a dissociation constant, usually derived from enzyme kinetics or from competition with a known ligand) in experiment [1] was found to be 31 nM; in experiment [3], 5.8 nM. Besides, in experiment [2], the EC50 (as a rule, the concentration giving half of the maximal effect) was 1.3 nM.
For `COc1ccc(Cl)cc1C(=O)/N=c1\sn(C(C)(C)C)cc1CCC(C)(C)F` [Example 87, N-[(5Z)-2-tert-butyl-4-(3-fluoro-3-methylbutyl)isothiazol-5(2H)-ylidene]-5-chloro-2-methoxybenzamide], in that order: 12 nM, 0.74 nM and 0.15 nM.
For `CCCCc1cn(C(C)(C)C)s/c1=N\C(=O)c1cc(C(F)(F)F)ccc1OC[C@@H]1CCCN1C` [Example 192, N-[(5Z)-4-butyl-2-tert-butylisothiazol-5(2H)-ylidene]-2-{[(2S)-1-methylpyrrolidin-2-yl]methoxy}-5-(trifluoromethyl)benzamide], in that order: 46 nM, 18 nM and 3.4 nM.
`COc1ccc(Cl)cc1C(=O)/N=c1\sn(C(C)(C)C)cc1C(O)C1CCC1` (stereo not drawn) [Example 34, N-[(5Z)-2-tert-butyl-4-[cyclobutyl(hydroxy)methyl]isothiazol-5(2H)-ylidene]-5-chloro-2-methoxybenzamide]: the Ki came to 3.6 nM in experiment [1] and 1.2 nM in experiment [3]. In experiment [2], this compound gave an EC50 of 0.4 nM.
For `CCCCc1cn(C(C)(C)C)s/c1=N\C(=O)[C@]1(C)CC[C@H](C(=O)O)C1(C)C` [Example 173, (1S,3R)-3-({[(5Z)-4-butyl-2-tert-butylisothiazol-5(2H)-ylidene]amino}carbonyl)-2,2,3-trimethylcyclopentanecarboxylic acid], in that order: 107 nM, 77 nM and 3.5 nM.
In the same order, the values of `CC(C)(C)n1cc(CCCC#N)/c(=N/C(=O)c2cc(Cl)ccc2OCC(F)(F)F)s1` [Example 133, N-[(5Z)-2-tert-butyl-4-(3-cyanopropyl)isothiazol-5(2H)-ylidene]-5-chloro-2-(2,2,2-trifluoroethoxy)benzamide] are 15 nM, 1.1 nM and 1.4 nM.
For `CCCCc1cn(C(C)(C)C)s/c1=N\C(=NC#N)c1cc(C(F)(F)F)ccc1OC` [Example 124, N-[(5Z)-4-butyl-2-tert-butylisothiazol-5(2H)-ylidene]-N′-cyano-2-methoxy-5-(trifluoromethyl)benzenecarboximidamide], in that order: 3 nM, 2.3 nM and 0.027 nM.
With `COc1ccc(Cl)cc1C(=O)/N=c1\sn(C(C)(C)C)cc1C(O)C(C)C` (stereo not drawn) [Example 23, N-[(5Z)-2-tert-butyl-4-(1-hydroxy-2-methylpropyl)isothiazol-5(2H)-ylidene]-5-chloro-2-methoxybenzamide], the Ki in experiment [1] was 14 nM; in experiment [3], 2.7 nM. In experiment [2], the EC50 is 0.89 nM.
For `CCCCCc1cn(C(C)(C)C)s/c1=N\C(=O)c1cc(Cl)ccc1OC` [Example 147, N-[(5Z)-2-tert-butyl-4-pentylisothiazol-5(2H)-ylidene]-5-chloro-2-methoxybenzamide], in that order: 1.6 nM, 0.15 nM and 0.062 nM.
In the same order, the values of `CCCCc1cn(C(C)(C)C)s/c1=N\C(=NC#N)c1cc(Cl)ccc1OC` [Example 110, N-[(5Z)-4-butyl-2-tert-butylisothiazol-5(2H)-ylidene]-5-chloro-N′-cyano-2-methoxybenzenecarboximidamide] are 3 nM, 1.6 nM and 0.12 nM.
For `CCCCc1cn(C(C)(C)C)s/c1=N\C(=O)[C@@]1(C)CC[C@@H](C(=O)O)C1(C)C` [Example 174, (1R,3S)-3-({[(5Z)-4-butyl-2-tert-butylisothiazol-5(2H)-ylidene]amino}carbonyl)-2,2,3-trimethylcyclopentanecarboxylic acid], in that order: 62 nM, 33 nM and 3.4 nM.
Turning to `CCCCc1cn(C(C)(C)C(F)(F)F)s/c1=N\C(=O)c1cc(Cl)ccc1OC` [Example 151, N-[(5Z)-4-butyl-2-(2,2,2-trifluoro-1,1-dimethylethyl)isothiazol-5(2H)-ylidene]-5-chloro-2-methoxybenzamide], the Ki in experiment [1] was found to be 9.1 nM; in experiment [3] it was 0.4 nM. The compound further showed an EC50 in experiment [2] of 0.072 nM.
For `C=CCc1cn(C(C)(C)C)s/c1=N\C(=O)c1cc(Cl)ccc1OC` [Example 6, N-[(5Z)-4-allyl-2-tert-butylisothiazol-5(2H)-ylidene]-5-chloro-2-methoxybenzamide], in that order: 210 nM, 16 nM and 2.4 nM.
In the same order, the values of `CCCCc1cn(C(C)(C)C)s/c1=N\C(=O)c1cc(C(=O)OC)ccc1OC` [Example 74, Methyl 3-({[(5Z)-4-butyl-2-tert-butylisothiazol-5(2H)-ylidene]amino}carbonyl)-4-methoxybenzoate] are 27 nM, 2.5 nM and 0.095 nM.
For `CC/C=C\c1cn(C(C)(C)C)s/c1=N\C(=O)c1cc(Cl)ccc1OC` [Example 25, N-[(5Z)-4-[(1Z)-but-1-enyl]-2-tert-butylisothiazol-5(2H)-ylidene]-5-chloro-2-methoxybenzamide], in that order: 51 nM, 1.6 nM and 1.7 nM.
For the compound `COc1ccc(Cl)cc1C(=O)/N=c1\sn(C(C)(C)C)cc1CCC(C)O` (stereo not drawn) [Example 18, N-[(5Z)-2-tert-butyl-4-(3-hydroxybutyl)isothiazol-5(2H)-ylidene]-5-chloro-2-methoxybenzamide], the Ki is 86 nM in experiment [1] and 4.3 nM in experiment [3]. Besides, the EC50 in experiment [2] worked out at 2.7 nM.
Regarding `CCCCc1cn(C(C)(C)C)s/c1=N\C(=O)c1cc(/C(C)=N\O)ccc1OC` [Example 68, N-[(5Z)-4-butyl-2-tert-butylisothiazol-5(2H)-ylidene]-5-[(1Z)-N-hydroxyethanimidoy1]-2-methoxybenzamide], the Ki is 59 nM in experiment [1] and 8.3 nM in experiment [3]. The same compound returned an EC50 in experiment [2] of 0.022 nM.
In the same order, the values of `CCCCc1cn(C(C)(C)C)s/c1=N\C(=O)[C@@H]1CC[C@](C)(C(=O)NC)C1(C)C` [Example 209, (1S,3R)—N^3-[(5Z)-4-butyl-2-tert-butylisothiazol-5(2H)-ylidene]-N^1,1,2,2-tetramethylcyclopentane-1,3-dicarboxamide] are 12 nM, 7.3 nM and 0.44 nM.
Take `CCCCc1cn(C(C)(C)C)s/c1=N\C(=O)c1cc(C(F)(F)F)ccc1OC` [Example 127, N-[(5Z)-4-butyl-2-tert-butylisothiazol-5(2H)-ylidene]-2-methoxy-5-(trifluoromethyl)benzamide]: the Ki in experiment [1] amounted to 3.7 nM; in experiment [3], 0.43 nM. This compound displayed an EC50 in experiment [2] of 0.16 nM.
In the same order, the values of `CON=CCCc1cn(C(C)(C)C)s/c1=N\C(=O)c1cc(Cl)ccc1OC` [Example 15, N-[(5Z)-2-tert-butyl-4-[3-(methoxyimino)propyl]isothiazol-5(2H)-ylidene]-5-chloro-2-methoxybenzamide] are 170 nM, 15 nM and 1.1 nM.
